{
  "source": "patent US20070207123A1",
  "about": "“Amelioration of effects of cigarette smoke” (priority 2002, published 2007)",
  "key": {"[1]": {"tested_on": "mononuclear cells of SSCS-exposed mice", "assay": "Micronuclei formation in bone marrow and peripheral blood cells after SSCS exposure", "format": "in vivo, mouse (C57B1/6)", "experimental": "Determination of micronuclei formation was made as described by Fenech (3). Briefly, animals were exposed to cigarette smoke ±SP treatment. Viable mononuclear cells were isolated from peripheral blood and bone marrow, stimulated with the mitogen PHA for 44 h, and treated with cytochalasin B for 28 h. Cytocentrifuge preparations were made, cells fixed and then analyzed at 1000× for micronuclei formation. At least 1000 cells were analyzed for each preparation.\nExposure to cigarette smoke results in genetic changes that can cause malignant cellular transformation (21, 22). Animals were exposed to SSCS as described above and sacrificed after 7 days. Viable mononuclear cells were isolated from peripheral blood and bone marrow, stimulated with the mitogen PHA for 44 h, and treated with cytochalasin B for 28 h. Cytocentrifuge preparations were made, cells fixed and then analyzed at 1000× for micronuclei formation. At least 1000 cells were analyzed from each preparation. […] Micronuclei formation in combination with damage of lung epithelia can result on pathological conditions such as emphysema and cancer (21)."}, "[2]": {"tested_on": "pulmonary alveolar macrophages (PAM)", "assay": "TNF-alpha secretion by pulmonary alveolar macrophages (ELISA)", "format": "cell-based, rat (Fischer 344)", "conditions": "overnight incubation, baseline 8.3 pg/ml per 1 × 10^6 cells, N 5", "experimental": "Rat pulmonary alveolar macrophages (PAM) were isolated from pathogen-free male Fischer 344 rats (Harlan, Indianapolis, Ind.). The rats were anesthetized intramuscularly with ketamine HCL (80 mg/kg; Parke-Davis, Morris Plains, N.J.), xylazine (10 mg/kg; Mobay Corp., Shawnee, Kans.) and acepromazine maleate (3 mg/kg; Fermenta Animal Health Co., Kansas City, Mo.). A tracheostomy was performed, with the insertion of a Teflon #18 gauge catheter (Critikon, Tampa Bay, Fla.) as an endotracheal tube. The rats were killed by exsanguination of the abdominal aorta. The lungs were removed and lavaged with 3 ml aliquots of normal sterile saline warmed to 37 C for a total of 6 washes. The lavaged total cell numbers and PAM differentials were determined from a 0.2 ml sample by hemocytometer counting and cytocentrifuge preparation stained with Diff-Quik (Dade Diagnostics, Aguada, Puerto Rico), respectively. The remaining lavaged fluid was pooled and centrifuged at 400×g for 10 minutes to obtain a cell pellet. […] Cells were then counted using a standard hemocytometer and placed in 12 well plates at a density of 10^4 cells/ml. […]\nTNF-alpha secretion by pulmonary alveolar macrophages (PAM) was measured by ELISA (R&D Systems, Minneapolis, Minn.) according to the manufacturer's instructions (25)."}, "[3]": {"tested_on": "airway epithelium and basement membranes of SSCS-exposed mice", "assay": "Electron microscopy of lung airway after SSCS exposure", "format": "in vivo, mouse (C57B1/6)", "experimental": "Mice were exposed to side-stream cigarette smoke as previously described (23). […] The cigarette was lit, placed upright in a ring clamp and the smoke was directed into a funnel for distribution through the chamber (at a concentration designed to simulate human exposure in a smokey bar).\nThe Substance P (SP) agonist, [Sar^9, Met (O2)^11-substance P] was obtained from Sigma Chemicals (St. Louis, Mo.) and used after reconstitution in sterile saline.\n(§1) Mice were treated with the SP analog [Sar^9, Met (O2)^11-substance P] for 15 minutes at the indicated doses following the cigarette smoke exposures as previously described (7, 10). Other than the genetically engineered SP experiments, all SP treatments were by the aerosol route using the previously described exposure chambers.\nThe lungs were prepared for morphometric study by injection of half-strength Kamovsky's Fluid into a major artery at a constant pressure of 20 cm H2O for 1 h at room temperature. The fixed tissue was then tied off at the artery with #4 suture. The Pathology Core Laboratories of the Southwestern Environmental Health Science Center evaluated the fixed tissue for pathological changes. The fixed tissues were sliced, dehydrated and post-fixed in osmium tetroxide, dehydrated and embedded in Epon-Araldite for high-resolution electron microscopy. Thin sections were cut from the embedded tissue with a diamond knife, mounted on 200 um copper mesh grids, and doubly stained with lead citrate and uranyl acetate. The tissue was viewed and photographed using a Phillips CM12 electron microscope (maximum magnification of 19,000×) (21).\nAnimals were exposed to SSCS for 45 min/day for 7 days from 1R4 standard research cigarettes (cigarette is lit and then placed upright in a ring clamp and the smoke is directed into a funnel for distribution through our exposure chamber) at a concentration designed to simulate a “smokey bar” scenario for human exposure to sidestream cigarette smoke. The sidestream cigarette smoke is considered highly toxic, even compared to the mainstream cigarette smoke that a human smoker inhales, due to the low combustion temperature of the smoldering cigarette. Subsequent to the exposures, some mice were treated with 1 uM-aerosolized SP for 15 minutes. At the end of one week the animals were sacrificed and lungs removed for electron microscopic analysis. […] The structure of the airway is characterized by airway epithelial cells anchored to a basement membrane. Another basement membrane serves as the anchor for the airway endothelial cells. The SSCS electron micrograph is characterized by swelling in both basement membrane areas of the airway structure and loss of cilia on the surface of the airway epithelium. […]"}, "B16 tumor cells": {"tested_on": "B16 tumor cells", "assay": "Experimental lung metastasis model, aerosolized SP", "format": "in vivo, mouse (B6)", "conditions": "for #Tumors/2 Lungs: mean +/− SD; for % Change in #Tumors/2 Lungs: vs B16 alone", "experimental": "as §1\nB16 tumor cells (H-2^b) were obtained from the American Type Cell Collection (ATCC) and grown in DMEM media (Sigma, St. Louis, Mo.) supplemented with 10% fetal bovine serum (Hyclone, Colo.), antibiotics, nonessential amino acids and glutamine as. Cells in log growth were used for all experiments. An experimental lung metastasis model was utilized in which B16 tumor cells (0.5×10^6 cells in 100 ul saline) were injected intravenously into syngeneic B6 mice. At 7-10 days post-injection the animals were sacrificed and the visually prominent (black) tumors on the surface of both lungs were enumerated.\nThe Student's t-test was utilized to analyze the data presented. A p value of 0.05 (or lower) was used as a minimally significant difference."}, "[4]": {"tested_on": "mice exposed to side-stream cigarette smoke (SSCS)", "assay": "Dynamic lung compliance after side-stream cigarette smoke (SSCS) exposure", "format": "in vivo, mouse (C57B1/6)", "experimental": "C57B1/6 (B6, Jackson Labs) mice were utilized. Mice were used at an age of 8-12 weeks, 25-35 grams in weight. Female animals only were utilized. All animals were housed in the animal facility of the Dept. of Animal Resources at The University of Arizona Health Sciences Center. Animals were used in AAALAC-approved protocols.\nAerosolized exposures were performed using a DeVilbiss Ultra-Neb nebulizer (Model 099HD, Somerset, Pa.). Animals were exposed in a nose-only presentation while held in individual subject loading tubes similarly to that previously described (12). The tubes were nose cone-fitted to receiving adapters that originated from the common exposure chamber (volume 0.0027 m3, IN-TOX, Albuquerque, N. Mex.). […] Exposure concentration was determined by a seven-stage cascade impactor (IN-TOX) from changes in plate weights and measured immediately after each exposure. […]\nMice were anesthetized with ketamine hydrochloride (80 mg/kg), xylazine (10 mg/kg) and acepromazine maleate (3 mg/kg). […] Airflow was measured with a pneumotachograph (Fleisch #0000, Instrumentation Associates, New York, N.Y.) that was coupled to a differential pressure transducer (Validyne, Northridge, Calif.). […] These lung function parameters were measured with a modified PEDS-LAB (Medical Associated Services, Hatfield, Pa.) pulmonary function system. […]"}, "[5]": {"conditions": "SSCS + SP, 7 days, mean +/− SD, N 6"}, "[6]": {"conditions": "SSCS 45 min/day then 15 min aerosol dose, FIG. 2"}},
  "note": "Marks after values point to notes of the source that are not given here.",
  "data": [
    {"substance": "[Sar^9, Met (O2)^11-substance P] [SP]", "values": [
      {"measurement": "levels of micronuclei formation versus control animals", "setting": "[1]; SP immediately after SSCS exposure, blood and bone marrow cells", "result": "comparable to control animals"},
      {"measurement": "Percent Micronuclei, Blood", "setting": "[1]; [5]", "result": "0.01 +/− 0.01* Percent"},
      {"measurement": "Percent Micronuclei, Bone Marrow", "setting": "[1]; [5]", "result": "0 +/− 0* Percent"},
      {"measurement": "Fold-Increase TNFa", "setting": "[2]; 8 nM SP", "result": 3.2, "unit": "X"},
      {"measurement": "Fold-Increase TNFa", "setting": "[2]; 1 uM SP", "result": 5.4, "unit": "X"},
      {"measurement": "deterioration of the lung epithelium / basement membrane (electron microscopy)", "setting": "[3]; SSCS 45 min/day 7 days, 1 uM aerosolized SP 15 min", "result": "attenuated such deterioration of the lung epithelium"},
      {"measurement": "airway basement membranes (electron micrograph)", "setting": "[3]; [6]", "result": "normal appearance of airway basement membranes"},
      {"measurement": "airway cilia (electron micrograph)", "setting": "[3]; [6]", "result": "normal cilia"},
      {"measurement": "cell membrane between airway cells (electron micrograph)", "setting": "[3]; SSCS 45 min/day then 15 min aerosol dose, FIG. 3", "result": "identifiable cell membrane between airway cells"},
      {"measurement": "inhibition of lung tumor formation", "setting": "B16 tumor cells; Experiments 1 to 3, aerosolized SP at the time of or after tumor induction", "result": "58-97%"},
      {"measurement": "#Tumors/2 Lungs", "setting": "B16 tumor cells; Expt. 1: aerosolized SP at the time of tumor induction, N 4", "result": "39 +/− 4*"},
      {"measurement": "% Change in #Tumors/2 Lungs", "setting": "B16 tumor cells; Expt. 1: aerosolized SP at the time of tumor induction", "result": "−63", "unit": "%"},
      {"measurement": "#Tumors/2 Lungs", "setting": "B16 tumor cells; Expt. 2: aerosolized SP at day 7 following tumor induction, N 4", "result": "1 +/− 0.3*"},
      {"measurement": "% Change in #Tumors/2 Lungs", "setting": "B16 tumor cells; Expt. 2: aerosolized SP at day 7 following tumor induction", "result": "−97", "unit": "%"},
      {"measurement": "#Tumors/2 Lungs", "setting": "B16 tumor cells; Expt. 3: aerosolized SP at day 7 following tumor induction, N 8", "result": "102 +/− 32*"},
      {"measurement": "% Change in #Tumors/2 Lungs", "setting": "B16 tumor cells; Expt. 3: aerosolized SP at day 7 following tumor induction", "result": "−58", "unit": "%"},
      {"measurement": "alterations in lung compliance due to SSCS", "setting": "[4]; SP immediately after the smoke exposures", "result": "prevented/reversed"},
      {"measurement": "Dynamic Lung Compliance", "setting": "[4]; SSCS 45 min/day for 1 week, then 1 uM aerosolized SP for 15 min, mean +/− SEM, N 15", "result": "2.2 (0.02) ml · cm H2O^−1 · Kg^−1"}
    ]}
  ]
}
